# Experimental data reported in ChEMBL document CHEMBL3352413, “4-Amino-2-arylamino-6-(2,6-dichlorophenyl)-pyrido[2,3-d]pyrimidin-7-(8H)-ones as BCR kinase inhibitors for B lymphoid malignancies” (Eur J Med Chem, 2014).
# Activity calls are given as the source filed them. The calls are words filed in the database; no cut-off is given here.
# Columns and labels:
# [1] = Inhibition of cell proliferation of human Rec1 cells at 5 uM after 24 hrs by MTT assay; type: functional; conditions: Rec1, 24 h
# [2] = target: Tyrosine-protein kinase Lyn (Homo sapiens) (UniProt P07948); assay: Inhibition of Lyn phosphorylation in human Rec1 cells at 2.5 uM incubated for 6 hrs by Western blotting method; type: cell-based
# Sequence of Tyrosine-protein kinase Lyn (Homo sapiens) (P07948 2-512 limits assumed): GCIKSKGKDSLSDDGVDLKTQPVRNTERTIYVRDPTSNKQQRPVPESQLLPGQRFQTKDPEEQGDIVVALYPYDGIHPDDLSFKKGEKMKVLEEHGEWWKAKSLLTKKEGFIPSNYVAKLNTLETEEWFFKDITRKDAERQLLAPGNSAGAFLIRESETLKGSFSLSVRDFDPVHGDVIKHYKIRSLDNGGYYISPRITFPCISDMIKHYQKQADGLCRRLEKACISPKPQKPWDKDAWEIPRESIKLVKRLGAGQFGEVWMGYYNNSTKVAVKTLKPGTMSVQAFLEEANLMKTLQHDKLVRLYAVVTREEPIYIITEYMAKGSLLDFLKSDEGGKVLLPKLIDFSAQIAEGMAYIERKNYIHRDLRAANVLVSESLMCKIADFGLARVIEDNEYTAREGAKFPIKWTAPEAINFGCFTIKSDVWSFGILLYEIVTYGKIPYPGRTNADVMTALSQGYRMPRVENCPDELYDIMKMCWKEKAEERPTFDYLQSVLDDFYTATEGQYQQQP
# [3] = Growth inhibition of human Rec1 cells after 24 hrs by MTT assay; type: functional; conditions: Rec1, 24 h
# [4] = Growth inhibition of human Rec1 cells after 48 hrs by MTT assay; type: functional; conditions: Rec1, 48 h
# [5] = Growth inhibition of human HBL2 cells after 48 hrs by MTT assay; type: functional; conditions: HBL2, 48 h
# [6] = Growth inhibition of human HBL2 cells after 24 hrs by MTT assay; type: functional; conditions: HBL2, 24 h
# [7] = Solubility in water; type: physicochemical
# [8] = Growth inhibition of bortezomib-resistant human JBR cells after 48 hrs by MTT assay; type: functional
# [9] = test system: PBMC; assay: Induction of apoptotic cell death in human PBMCs at 1 to 10 uM after 24 hrs by Annexin V and propidium iodide staining based flow cytometry
# [10] = Growth inhibition of bortezomib-resistant human JBR cells after 24 hrs by MTT assay; type: functional
# [11] = target: Tyrosine-protein kinase Lyn (Homo sapiens) (UniProt P07948); assay: Inhibition of Lyn (unknown origin) assessed as enzyme residual activity at 10 uM by radiometric protein kinase assay
# [12] = target: Tyrosine-protein kinase BTK (Homo sapiens) (UniProt Q06187); assay: Inhibition of BTK (unknown origin) assessed as enzyme residual activity at 10 uM by radiometric protein kinase assay
# Sequence of Tyrosine-protein kinase BTK (Homo sapiens) (Q06187 whole entry): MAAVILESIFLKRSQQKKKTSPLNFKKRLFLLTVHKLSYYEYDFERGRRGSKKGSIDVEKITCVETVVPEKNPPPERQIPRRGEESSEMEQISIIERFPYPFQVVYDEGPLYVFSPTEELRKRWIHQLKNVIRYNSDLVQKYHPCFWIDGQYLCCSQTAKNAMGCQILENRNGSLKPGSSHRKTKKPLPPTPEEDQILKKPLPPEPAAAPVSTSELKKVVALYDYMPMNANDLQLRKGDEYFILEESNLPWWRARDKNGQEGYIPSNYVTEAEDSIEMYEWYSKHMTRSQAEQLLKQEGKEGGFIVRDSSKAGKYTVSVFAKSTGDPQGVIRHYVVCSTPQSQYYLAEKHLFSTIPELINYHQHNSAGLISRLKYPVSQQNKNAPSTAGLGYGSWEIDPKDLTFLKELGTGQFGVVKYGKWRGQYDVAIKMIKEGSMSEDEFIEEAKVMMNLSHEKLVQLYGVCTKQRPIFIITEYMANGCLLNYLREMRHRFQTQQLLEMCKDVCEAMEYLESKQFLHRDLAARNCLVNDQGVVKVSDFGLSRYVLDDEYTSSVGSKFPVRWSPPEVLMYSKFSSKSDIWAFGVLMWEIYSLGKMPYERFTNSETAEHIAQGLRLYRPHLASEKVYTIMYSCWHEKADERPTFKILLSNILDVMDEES
# [13] = target: Tyrosine-protein kinase BTK (Homo sapiens) (UniProt Q06187); assay: Inhibition of BTK phosphorylation in human Rec1 cells at 1 uM incubated for 6 hrs by Western blotting method; type: cell-based
# [14] = target: Tyrosine-protein kinase Lyn (Homo sapiens) (UniProt P07948); assay: Inhibition of Lyn phosphorylation in human Rec1 cells at 0.1 to 5 uM incubated for 6 hrs by Western blotting method; type: cell-based
# [15] = target: Tyrosine-protein kinase SYK (Homo sapiens) (UniProt P43405); assay: Inhibition of Syk (unknown origin) assessed as enzyme residual activity at 10 uM by radiometric protein kinase assay
# [16] = target: Tyrosine-protein kinase SYK (Homo sapiens) (UniProt P43405); assay: Inhibition of Syk phosphorylation in human Rec1 cells at 0.1 to 5 uM incubated for 6 hrs by Western blotting method; type: cell-based
# [17] = target: Tyrosine-protein kinase BTK (Homo sapiens) (UniProt Q06187); assay: Inhibition of BTK phosphorylation in human Rec1 cells at 5 uM incubated for 6 hrs by Western blotting method; type: cell-based
# [18] = Growth inhibition of human JVM13 cells after 48 hrs by MTT assay; type: functional; conditions: JVM13, 48 h
# [19] = Growth inhibition of human SC1 cells after 24 hrs by MTT assay; type: functional; conditions: SC-1, 24 h
# [20] = Growth inhibition of human JeKo1 cells after 24 hrs by MTT assay; type: functional; conditions: JeKo-1, 24 h
# [21] = Growth inhibition of human JVM2 cells after 48 hrs by MTT assay; type: functional; conditions: JVM-2, 48 h
# [22] = Growth inhibition of human SUDHL8 cells after 24 hrs by MTT assay; type: functional; conditions: SU-DHL-8, 24 h
# [23] = Growth inhibition of human Z138C cells after 48 hrs by MTT assay; type: functional
# [24] = Growth inhibition of human SC1 cells after 48 hrs by MTT assay; type: functional; conditions: SC-1, 48 h
# [25] = Growth inhibition of human Mino cells after 48 hrs by MTT assay; type: functional
# [26] = Growth inhibition of human U2932 cells after 48 hrs by MTT assay; type: functional; conditions: U2932, 48 h
# [27] = Growth inhibition of human JVM2 cells after 24 hrs by MTT assay; type: functional; conditions: JVM-2, 24 h
# [28] = Growth inhibition of human Mino cells after 24 hrs by MTT assay; type: functional
# [29] = test system: WSU-NHL; assay: Growth inhibition of human WSU-NHL cells after 48 hrs by MTT assay; type: functional
# [30] = Growth inhibition of human GRANTA-519 cells after 24 hrs by MTT assay; type: functional; conditions: Granta-519, 24 h
# [31] = Growth inhibition of human JVM13 cells after 24 hrs by MTT assay; type: functional; conditions: JVM13, 24 h
# [32] = test system: WSU-NHL; assay: Growth inhibition of human WSU-NHL cells after 24 hrs by MTT assay; type: functional
# [33] = Growth inhibition of human Maver1 cells after 24 hrs by MTT assay; type: functional; conditions: Maver1, 24 h
# [34] = Growth inhibition of human JeKo1 cells after 48 hrs by MTT assay; type: functional; conditions: JeKo-1, 48 h
# [35] = Growth inhibition of human OCI-Ly8 cells after 24 hrs by MTT assay; type: functional; conditions: OCI-Ly8, 24 h
# [36] = Growth inhibition of human SUDHL16 cells after 24 hrs by MTT assay; type: functional; conditions: SU-DHL-16, 24 h
# [37] = Growth inhibition of human OCI-Ly8 cells after 48 hrs by MTT assay; type: functional; conditions: OCI-Ly8, 48 h
# [38] = Growth inhibition of human SUDHL8 cells after 48 hrs by MTT assay; type: functional; conditions: SU-DHL-8, 48 h
# [39] = Growth inhibition of human Z138C cells after 24 hrs by MTT assay; type: functional
# [40] = Growth inhibition of human MEC2 cells after 24 hrs by MTT assay; type: functional; conditions: MEC2, 24 h
# [41] = Growth inhibition of human UPN1 cells after 24 hrs by MTT assay; type: functional; conditions: UPN1, 24 h
# [42] = Growth inhibition of human GRANTA-519 cells after 48 hrs by MTT assay; type: functional; conditions: Granta-519, 48 h
# [43] = Growth inhibition of human SUDHL16 cells after 48 hrs by MTT assay; type: functional; conditions: SU-DHL-16, 48 h
# [44] = Growth inhibition of human WSU-FSCCL cells after 48 hrs by MTT assay; type: functional
# [45] = Growth inhibition of human MEC1 cells after 48 hrs by MTT assay; type: functional; conditions: MEC1, 48 h
# [46] = Growth inhibition of human DOHH2 cells after 48 hrs by MTT assay; type: functional; conditions: DOHH-2, 48 h
# [47] = Growth inhibition of human WSU-FSCCL cells after 24 hrs by MTT assay; type: functional
# [48] = Growth inhibition of human Maver1 cells after 48 hrs by MTT assay; type: functional; conditions: Maver1, 48 h
# [49] = Growth inhibition of human U2932 cells after 24 hrs by MTT assay; type: functional; conditions: U2932, 24 h
# [50] = Growth inhibition of human UPN1 cells after 48 hrs by MTT assay; type: functional; conditions: UPN1, 48 h
# [51] = Growth inhibition of human MEC1 cells after 24 hrs by MTT assay; type: functional; conditions: MEC1, 24 h
# [52] = Growth inhibition of human DOHH2 cells after 24 hrs by MTT assay; type: functional; conditions: DOHH-2, 24 h
# [53] = Growth inhibition of human MEC2 cells after 48 hrs by MTT assay; type: functional; conditions: MEC2, 48 h
smiles,measurement,setting,value
COc1cc(Nc2ncc(F)c(Nc3ccc4c(n3)NC(=O)C(C)(C)O4)n2)cc(OC)c1OC [R-406],inhibition at 5 µM,[1],31%
same,inhibition,[2],Active
Nc1nc(N)c2c(n1)NC(=O)C(c1c(Cl)cccc1Cl)C2 (stereo not drawn),GI50,[3],> 100 µM
same,GI50,[4],> 100 µM
same,GI50,[5],> 100 µM
same,GI50,[6],> 100 µM
Cn1c(=O)c(-c2c(Cl)cccc2Cl)cc2c(N)nc(Nc3ccccc3)nc21,GI50,[3],1.8 µM
same,GI50,[4],0.7 µM
same,solubility,[7],< 1 µg/mL
same,GI50,[8],0.9 µM
same,GI50,[5],0.4 µM
same,Activity,[9],3%
same,GI50,[10],3.1 µM
same,GI50,[6],1.7 µM
CN1C(=O)C(c2c(Cl)cccc2Cl)Cc2c(N)nc(Nc3ccccc3)nc21 (stereo not drawn),GI50,[3],67.2 µM
same,GI50,[4],1.3 µM
same,GI50,[5],1.7 µM
same,GI50,[6],> 100 µM
Nc1nc(Nc2ccccc2)nc2[nH]c(=O)c(-c3c(Cl)cccc3Cl)cc12,GI50,[3],12.1 µM
same,GI50,[4],> 100 µM
same,GI50,[5],> 100 µM
same,GI50,[6],8.8 µM
CN1CCN(c2ccc(Nc3nc(N)c4cc(-c5c(Cl)cccc5Cl)c(=O)n(C)c4n3)cc2)CC1 [listing 1 of 2 here],Activity,[11],-1%
same,Activity,[12],3%
same,inhibition,[13],10%
same,inhibition,[14],Dose-dependent effect
same,Activity,[15],9%
same,inhibition,[16],Dose-dependent effect
same,inhibition,[17],40%
same,inhibition,[2],Active
Cn1c(=O)c(-c2c(Cl)cccc2Cl)cc2c(N)nc(Nc3ccc(OCCN4CCOCC4)cc3)nc21,Activity,[11],0%
same,Activity,[12],16%
same,Activity,[15],44%
Nc1nc(Nc2ccccc2)nc2c1CC(c1c(Cl)cccc1Cl)CN2 (stereo not drawn),GI50,[3],4 µM
same,GI50,[4],1.3 µM
same,GI50,[5],2.4 µM
same,GI50,[6],7.5 µM
Cn1c(=O)c(-c2c(Cl)cccc2Cl)cc2c(N)nc(Nc3ccc(NCCN4CCOCC4)cc3)nc21,Activity,[11],0%
same,Activity,[12],10%
same,Activity,[15],31%
Nc1nc(Nc2ccccc2)nc2c1CC(c1c(Cl)cccc1Cl)C(=O)N2 (stereo not drawn),GI50,[3],> 100 µM
same,GI50,[4],52.3 µM
same,GI50,[5],5.7 µM
same,GI50,[6],12 µM
C=CC(=O)N1CCC[C@@H](n2nc(-c3ccc(Oc4ccccc4)cc3)c3c(N)ncnc32)C1 [IBRUTINIB],inhibition at 5 µM,[1],3%
same,inhibition,[2],Active
CN1CCN(c2ccc(Nc3nc(N)c4cc(-c5c(Cl)cccc5Cl)c(=O)n(C)c4n3)cc2)CC1.CS(=O)(=O)O,solubility,[7],10000 µg/mL
CN1CCN(c2ccc(Nc3nc(N)c4cc(-c5c(Cl)cccc5Cl)c(=O)n(C)c4n3)cc2)CC1 [listing 2 of 2 here],inhibition at 5 µM,[1],63%
same,GI50,[18],4.9 µM
same,GI50,[19],3.7 µM
same,GI50,[20],3.6 µM
same,GI50,[21],3 µM
same,GI50,[3],3.2 µM
same,GI50,[22],5.4 µM
same,GI50,[4],3 µM
same,GI50,[23],3 µM
same,GI50,[24],2.7 µM
same,GI50,[25],3 µM
same,GI50,[26],5 µM
same,GI50,[27],3.6 µM
same,GI50,[28],3.6 µM
same,GI50,[29],2.7 µM
same,GI50,[30],3.6 µM
same,GI50,[31],5.9 µM
same,GI50,[32],3.7 µM
same,GI50,[33],3.6 µM
same,GI50,[34],3 µM
same,GI50,[35],5.4 µM
same,GI50,[36],5.4 µM
same,GI50,[37],5 µM
same,GI50,[38],5 µM
same,GI50,[5],2.6 µM
same,GI50,[39],3.6 µM
same,GI50,[40],5.9 µM
same,GI50,[41],3.6 µM
same,GI50,[42],3 µM
same,GI50,[43],5 µM
same,GI50,[44],2.7 µM
same,GI50,[45],4.9 µM
same,GI50,[46],2.7 µM
same,GI50,[47],3.7 µM
same,GI50,[48],3 µM
same,GI50,[6],4.9 µM
same,GI50,[49],5.4 µM
same,GI50,[50],3 µM
same,GI50,[51],5.9 µM
same,GI50,[52],3.7 µM
same,GI50,[53],4.9 µM
